Assay results taken from EP1457483A1, “Cationic lipids with serine backbone” (Ruhr-Universität Bochum, priority 2003, dated 2004).

Experiments:
primary dendritic cells = assay: Transfection of primary dendritic cells with lipoplexes (luciferase activity per protein content); assay type: cell-based, human
Method: Cell culture: SV40 transformed African green monkey kidney cell line COS-7 (ATCC CRL-1651) was routinely passaged in DMEM (GIBCO BRL, Karlsruhe, Germany), respectively, supplemented with 1% L-glutamin solution (100x), 1% Penicillin/Streptomycin solution (100x) (GIBCO BRL, Karlsruhe, Germany), and 10% FCS (BioWhittaker, Verviers, Belgium) at 37°C with 5% CO2 in humidified atmosphere. For the screening cells were maintained in 96-well culture plates (Greiner, Frickenhausen, Germany) in 100 μl DMEM, 10 % FCS, 1 % Penicillin-streptomycin in a humidified atmosphere at 37 °C/5 % CO2. 24 h prior to transfection, the cells were seeded into the microtiter plate at 10,000 cells per well to reach a confluency of 50 % at the time of transfection. […] After 5-6 days non-adherent cells were collected and purity of DCs was determined by FACS analysis using a FACSort flow cytometer (Becton Dickinson, Mountain View, CA) and the CellQuest software for data processing as recently described (Jantscheff, P. et al., J. Immunol. Methods 163(1):91-7 (1993)). […] Binding specificity was determined using IgG1 (MOPC-21), IgG2a (UPC-10), or IgG2b (MOPC-141) isotype control mAbs (SIGMA-ALDRICH Chemie, Buchs, Switzerland). […]

COS-7 cells = assay: Automated lipofection screening: GFP-luciferase reporter gene transfer (luciferase activity per protein content); assay type: cell-based, African green monkey; settings: best lipid/DNA charge ratio of 2.5, determined in each run, point is thousands separator
Method: Screening the combinatorial lipid library for lipofection properties: Goal of this first step was to compare transfection efficiency of these structurally related cationic lipids with systematically modified hydrocarbon chain compositions for the development of suitable lipofection reagents and protocols and to study the relationship between structure and transfection efficiency of this new class of cationic lipids for gene transfer. All lipids (MS-1 to MS-50, table 1) were tested using a standard protocol: From each lipid, twenty four different lipoplexes were formed containing either no helper lipid or the helper lipids DOPE and CHOL at molar amounts (1:0.5), respectively, using eight different lipid:DNA-charge ratios (LDR) from 1:1 - 15:1, resulting in a lipofection profile for each lipid. The COS-7 cell-line was used for this lipofection study since COS-7 is easy to transfect and differences between the lipids are easy to identify.
Cell culture: SV40 transformed African green monkey kidney cell line COS-7 (ATCC CRL-1651) was routinely passaged in DMEM (GIBCO BRL, Karlsruhe, Germany), respectively, supplemented with 1% L-glutamin solution (100x), 1% Penicillin/Streptomycin solution (100x) (GIBCO BRL, Karlsruhe, Germany), and 10% FCS (BioWhittaker, Verviers, Belgium) at 37°C with 5% CO2 in humidified atmosphere. For the screening cells were maintained in 96-well culture plates (Greiner, Frickenhausen, Germany) in 100 µl DMEM, 10 % FCS, 1 % Penicillin-streptomycin in a humidified atmosphere at 37 °C/5 % CO2. 24 h prior to transfection, the cells were seeded into the microtiter plate at 10,000 cells per well to reach a confluency of 50 % at the time of transfection. Dendritic cells: Dendritic cells (DC) were derived from highly purified circulating CD14(+) monocytes: In a first step, peripheral blood mononuclear leukocytes (PBL) from healthy control persons were isolated by Ficoll-Paque (Pharmacia Biotech AB, Uppsala, Sweden) density centrifugation. The following immunomagnetic purification of the monocytes from PBL was performed using CD14 Microbeads and MiniMACS high gradient magnetic separation columns (Miltenyi Biotech, Bergisch Gladbach, Germany) according to manufacturer's instructions. Isolated monocytes (5 x 10^5/well) were cultured in RPMI supplemented with 10 % FCS, or serum-free Macrophage-SFM medium (GIBCO BRL, Karlsruhe, Germany) supplemented with human recombinant GM-CSF (0.05µg/ml) and IL-4 (0.025µg/ml) (PromoCell, Heidelberg, Germany) in 6-well plates. Aliquots of the cells were reanalyzed by FACS with anti-CD14 mAbs (Pharmingen, San Diego, CA). After 5-6 days non-adherent cells were collected and purity of DCs was determined by FACS analysis using a FACSort flow cytometer (Becton Dickinson, Mountain View, CA) and the CellQuest software for data processing as recently described (Jantscheff, P. et al., J. Immunol. Methods 163(1):91-7 (1993)).

In the case of CCCCCCCC/C=C\CCCCCCCC(=O)OCC(C[N+](C)(C)C)OC(=O)CCCCCCC/C=C\CCCCCCCC (stereo not drawn) [DOTAP, N-[1-(2,3-dioleoyloxy)propyl]-N,N,N-trimethylammonium methylsulfate], the “Transfection efficiencies, RLU” value (primary dendritic cells; helper lipid 1:0.5 at optimum lipid:DNA ratio, ± standard deviation (lu µg^-1 protein)) is reported as 235 ± 119 RLU, the “% DOTAP” value (primary dendritic cells; standardized on lipofection efficiency of DOTAP-lipoplexes set to 100%) is reported as 100% and the “transfection efficiency (DOTAP values)” value (COS-7 cells) is reported as 30.838 ± 6.363 RLU.
